# Source: patent US20060069132A1, “Azolecarboxamide herbicides” (priority 2004, published 2006)
# Where two headings read alike, the source gives them in different places.
# How the values were obtained:
# [1] = tested on: barnyardgrass; assay: Test B pre-/postemergence herbicide test; assay type: in vivo, Echinochloa crus-galli; settings: Echinochloa crus-galli; for pest or weed control at 125 g/ha: 125 g ai/ha; for pest or weed control at 500 g/ha: 500 g ai/ha
# Method in brief: (§1)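 Pre: seeds sown, then sprayed. Post: 1–4-leaf plants (2–18 cm) sprayed at the same time. Paddy: flooded, treated at 2-leaf stage. Formulation: non-phytotoxic solvent with surfactant. Greenhouse 13–15 days; visual 0–100 score relative to controls.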
# [2] = tested on: Surinam grass; assay: Test B pre-/postemergence herbicide test; assay type: in vivo, Urochloa decumbens; settings: Urochloa decumbens; for pest or weed control at 125 g/ha: 125 g ai/ha; for pest or weed control at 500 g/ha: 500 g ai/ha
# Method in brief: as §1
# [3] = tested on: cocklebur; assay: Test B pre-/postemergence herbicide test; assay type: in vivo, Xanthium strumarium; settings: Xanthium strumarium; for pest or weed control at 125 g/ha: 125 g ai/ha; for pest or weed control at 500 g/ha: 500 g ai/ha
# Method in brief: as §1
# [4] = tested on: corn; assay: Test B pre-/postemergence herbicide test; assay type: in vivo, Zea mays; settings: Zea mays; for plant injury at 125 g/ha: 125 g ai/ha
# Method in brief: as §1
# [5] = tested on: large crabgrass; assay: Test B pre-/postemergence herbicide test; assay type: in vivo, Digitaria sanguinalis; settings: Digitaria sanguinalis; for pest or weed control at 125 g/ha: 125 g ai/ha; for pest or weed control at 500 g/ha: 500 g ai/ha
# Method in brief: as §1
# [6] = tested on: lambsquarters; assay: Test B pre-/postemergence herbicide test; assay type: in vivo, Chenopodium album; settings: Chenopodium album, 336 h; for pest or weed control at 125 g/ha: 125 g ai/ha; for pest or weed control at 500 g/ha: 500 g ai/ha
# Method in brief: as §1
# [7] = tested on: morningglory; assay: Test B pre-/postemergence herbicide test; assay type: in vivo, Ipomoea coccinea; settings: Ipomoea, 336 h; for pest or weed control at 125 g/ha: 125 g ai/ha; for pest or weed control at 500 g/ha: 500 g ai/ha
# Method in brief: as §1
# [8] = tested on: velvetleaf; assay: Test B pre-/postemergence herbicide test; assay type: in vivo, Abutilon theophrasti; settings: Abutilon theophrasti, 336 h; for pest or weed control at 125 g/ha: 125 g ai/ha; for pest or weed control at 500 g/ha: 500 g ai/ha
# Method in brief: as §1
# [9] = tested on: blackgrass; assay: Test B postemergence herbicide test; assay type: in vivo, Alopecurus myosuroides; settings: Alopecurus myosuroides, post-emergence, 336 h, postemergence, visual rating, scale 0 (no effect) to 100 (complete control), read-out: Blackgrass plant response rating
# Method in brief: (§2)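 Read-out: visual comparison with controls, scored 0 to 100, where 100 means complete control and 0 no effect. Formulated chemicals were applied postemergence to plants 2–18 cm tall (1- to 4-leaf), or to flooded-paddy plants at the 2-leaf stage, then held 13 to 15 days under glass.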
# [10] = tested on: wheat; assay: Test B postemergence herbicide test; assay type: in vivo, Triticum aestivum; settings: Triticum aestivum, post-emergence, 336 h, postemergence, visual rating, scale 0 (no effect) to 100 (complete control), read-out: Wheat plant response rating
# Method in brief: (§3)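 Each value is a visual 0–100 response rating taken against controls 13 to 15 days after treatment in the greenhouse. Plants received formulated chemical postemergence at the 1- to 4-leaf stage or, in flooded paddy, at the 2-leaf stage.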
# [11] = tested on: wild oat; assay: Test B postemergence herbicide test; assay type: in vivo, Avena fatua; settings: Avena fatua, post-emergence, 336 h, postemergence, visual rating, scale 0 (no effect) to 100 (complete control), read-out: Oat, Wild plant response rating
# Method in brief: as §3
# [12] = tested on: rice; assay: Test B flooded paddy test; assay type: in vivo, Oryza sativa; settings: Oryza sativa, 336 h, 1000 g ai/ha, visual rating, scale 0 to 100 (0 no effect, 100 complete control), 13 to 15 days, read-out: Rice plant response rating
# Method in brief: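 Plants grow to 1- to 4-leaf stage (2–18 cm) for postemergence spraying, or to 2-leaf stage for the paddy test. Formulated compound is applied. Greenhouse holding lasts 13–15 days. Response is scored visually relative to controls, 0 no effect to 100 complete control; a dash means no result.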
# [13] = tested on: small flower umbrella sedge; assay: Test B flooded paddy test; assay type: in vivo, Cyperus difformis; settings: Cyperus difformis, 336 h, 1000 g ai/ha, visual rating, scale 0 to 100 (0 no effect, 100 complete control), 13 to 15 days, read-out: Sedge, Umbrella plant response rating
# Method in brief: as §2
# [14] = tested on: ducksalad; assay: Test B flooded paddy test; assay type: in vivo, Heteranthera limosa; settings: Heteranthera limosa, 336 h, 1000 g ai/ha, visual rating, scale 0 to 100 (0 no effect, 100 complete control), 13 to 15 days, read-out: Ducksalad plant response rating
# Method in brief: as §2
# [15] = tested on: barnyardgrass; assay: Test B flooded paddy test; assay type: in vivo, Echinochloa crus-galli; settings: Echinochloa crus-galli, 336 h, 1000 g ai/ha, visual rating, scale 0 to 100 (0 no effect, 100 complete control), 13 to 15 days, read-out: Barnyardgrass plant response rating
# Method in brief: as §2
# [16] = post-emergence, postemergence, visual rating, scale 0 (no effect) to 100 (complete control), read-out: Barnyardgrass plant response rating
# [17] = post-emergence, postemergence, visual rating, scale 0 (no effect) to 100 (complete control), read-out: Surinam Grass plant response rating
# [18] = post-emergence, postemergence, visual rating, scale 0 (no effect) to 100 (complete control), read-out: Cocklebur plant response rating
# [19] = post-emergence, postemergence, visual rating, scale 0 (no effect) to 100 (complete control), read-out: Crabgrass, Large plant response rating
# [20] = post-emergence, postemergence, visual rating, scale 0 (no effect) to 100 (complete control), read-out: Lambsquarters plant response rating
# [21] = post-emergence, postemergence, visual rating, scale 0 (no effect) to 100 (complete control), read-out: Morningglory plant response rating
# [22] = post-emergence, postemergence, visual rating, scale 0 (no effect) to 100 (complete control), read-out: Velvetleaf plant response rating
compound,measurement,setting,value
"CCNC(=O)c1cccc(NC(=O)c2nn(C(C)(C)C)cc2Br)c1 [Compound 221, 4-bromo-1-(1,1-dimethylethyl)-N-[3-[(ethylamino)carbonyl]phenyl]-1H-pyrazole-3-carboxamide]",pest or weed control at 125 g/ha,[1]; [16],0%
same,pest or weed control at 500 g/ha,[1]; [16],10%
same,pest or weed control at 125 g/ha,"[1]; pre-emergence, 0 = no effect, 100 = complete control, read-out: Barnyardgrass plant response rating (0 to 100 scale)",0%
same,pest or weed control at 500 g/ha,"[1]; pre-emergence, visual rating, 0 = no effect, 100 = complete control, read-out: Plant response rating, Barnyardgrass",90%
same,pest or weed control at 125 g/ha,[2]; [17],0%
same,pest or weed control at 500 g/ha,[2]; [17],10%
same,pest or weed control at 125 g/ha,"[2]; pre-emergence, 0 = no effect, 100 = complete control, read-out: Surinam Grass plant response rating (0 to 100 scale)",0%
same,pest or weed control at 500 g/ha,"[2]; pre-emergence, visual rating, 0 = no effect, 100 = complete control, read-out: Plant response rating, Surinam Grass",30%
same,pest or weed control at 125 g/ha,[3]; [18],0%
same,pest or weed control at 500 g/ha,[3]; [18],20%
same,pest or weed control at 125 g/ha,"[3]; pre-emergence, 0 = no effect, 100 = complete control, read-out: Cocklebur plant response rating (0 to 100 scale)",0%
same,pest or weed control at 500 g/ha,"[3]; pre-emergence, visual rating, 0 = no effect, 100 = complete control, read-out: Plant response rating, Cocklebur",0%
same,plant injury at 125 g/ha,"[4]; post-emergence, postemergence, visual rating, scale 0 (no effect) to 100 (complete control), read-out: Corn plant response rating",10%
same,plant injury at 500 g/ha,"[4]; post-emergence, postemergence, 500 g ai/ha, visual rating, scale 0 (no effect) to 100 (complete control), read-out: Corn plant response rating",10%
same,plant injury at 125 g/ha,"[4]; pre-emergence, 0 = no effect, 100 = complete control, read-out: Corn plant response rating (0 to 100 scale)",0%
same,"Corn plant response rating (crop injury, 0 = no effect, 100 = complete kill) at 500 g/ha","[4]; pre-emergence, 500 g ai/ha, visual rating, 0 = no effect, 100 = complete control",0%
same,pest or weed control at 125 g/ha,[5]; [19],0%
same,pest or weed control at 500 g/ha,[5]; [19],10%
same,pest or weed control at 125 g/ha,"[5]; pre-emergence, 0 = no effect, 100 = complete control, read-out: Crabgrass, Large plant response rating (0 to 100 scale)",80%
same,pest or weed control at 500 g/ha,"[5]; pre-emergence, visual rating, 0 = no effect, 100 = complete control, read-out: Plant response rating, Crabgrass, Large",100%
same,pest or weed control at 125 g/ha,[6]; [20],0%
same,pest or weed control at 500 g/ha,[6]; [20],20%
same,pest or weed control at 125 g/ha,"[6]; pre-emergence, 0 = no effect, 100 = complete control, read-out: Lambsquarters plant response rating (0 to 100 scale)",20%
same,pest or weed control at 500 g/ha,"[6]; pre-emergence, visual rating, 0 = no effect, 100 = complete control, read-out: Plant response rating, Lambsquarters",100%
same,pest or weed control at 125 g/ha,[7]; [21],0%
same,pest or weed control at 500 g/ha,[7]; [21],0%
same,pest or weed control at 125 g/ha,"[7]; pre-emergence, 0 = no effect, 100 = complete control, read-out: Morningglory plant response rating (0 to 100 scale)",0%
same,pest or weed control at 500 g/ha,"[7]; pre-emergence, visual rating, 0 = no effect, 100 = complete control, read-out: Plant response rating, Morningglory",0%
same,pest or weed control at 125 g/ha,[8]; [22],0%
same,pest or weed control at 500 g/ha,[8]; [22],0%
same,pest or weed control at 125 g/ha,"[8]; pre-emergence, 0 = no effect, 100 = complete control, read-out: Velvetleaf plant response rating (0 to 100 scale)",0%
same,pest or weed control at 500 g/ha,"[8]; pre-emergence, visual rating, 0 = no effect, 100 = complete control, read-out: Plant response rating, Velvetleaf",50%
same,pest or weed control at 125 g/ha,[9]; 125 g ai/ha,0%
same,pest or weed control at 500 g/ha,[9]; 500 g ai/ha,0%
same,plant injury at 125 g/ha,[10]; 125 g ai/ha,0%
same,plant injury at 500 g/ha,[10]; 500 g ai/ha,10%
same,pest or weed control at 125 g/ha,[11]; 125 g ai/ha,0%
same,pest or weed control at 500 g/ha,[11]; 500 g ai/ha,10%
same,plant injury at 1000 g/ha,[12],20%
same,pest or weed control at 1000 g/ha,[13],80%
same,pest or weed control at 1000 g/ha,[14],50%
same,pest or weed control at 1000 g/ha,[15],40%
